The values below come from publication PMC10975434 (Pharmaceutics, 2024).

In data set [1] the target is T1, UGT2B7 (Homo sapiens, UniProt P16662).
T1 sequence (P16662 24-529): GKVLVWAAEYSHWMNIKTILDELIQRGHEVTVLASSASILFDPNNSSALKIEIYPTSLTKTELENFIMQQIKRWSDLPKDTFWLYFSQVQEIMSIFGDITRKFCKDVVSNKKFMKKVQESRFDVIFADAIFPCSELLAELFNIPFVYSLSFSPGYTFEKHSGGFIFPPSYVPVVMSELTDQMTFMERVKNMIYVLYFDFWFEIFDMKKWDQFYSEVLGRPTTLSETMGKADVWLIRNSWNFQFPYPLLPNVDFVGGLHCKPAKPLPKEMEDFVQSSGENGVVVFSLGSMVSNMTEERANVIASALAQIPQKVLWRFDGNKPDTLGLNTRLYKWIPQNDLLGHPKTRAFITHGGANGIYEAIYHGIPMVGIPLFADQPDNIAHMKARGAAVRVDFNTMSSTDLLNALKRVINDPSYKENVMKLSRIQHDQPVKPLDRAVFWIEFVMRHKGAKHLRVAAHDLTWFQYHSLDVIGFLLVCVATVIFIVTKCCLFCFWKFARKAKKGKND
Briefly: IC50 determination and calculated Ki, morphine glucuronidation in HLM.

Data set [2] addresses T1, UGT2B7.
Data set [3] is described as follows: Estimated unbound maximum hepatic inlet concentration used for the static model. The settings on record: read-out: Cmax,hepatic inlet,u, estimated from Cmax of Bansal et al., 2022 [56]. Here is the method: (8) [I]h=fu,p×Cmax+Fa ×Fg×Ka×Dose/Qh ×Rb
For the static mechanistic modeling, hepatic blood flow (Qh) and enterocyte blood flow (Qen) were set to 1500 mL/min and 300 mL/min, respectively, and the blood-to-plasma concentration ratio (RB) was set to 0.4 [55].
C௠௔௫ ,௛௘௣௔௧௜௖ ௜௡௟௘௧ ,௨ ൌ f௨,௣ ൈ ቀC௠௔௫ ൅ ிೌ ൈ ி೒ ൈ ௄ೌ ൈ஽௢௦௘ொ೓ ൈ ோ್ቁ, where fu,p (unbound fraction in plasma) wa s set

Data set [4] has as its target T2, UGT2B7 (Homo sapiens, UniProt P16662, Y268H).
T2 sequence (P16662 24-529 Y268H): T1 sequence (P16662 24-529) with Y245H

For data set [5], the target named is T1, UGT2B7. The data set is described as follows: Inhibition screening of morphine glucuronidation in pooled human liver microsomes (HLM). Particulars: 100 µM cannabinoid.
Data set [6] deals with T2, UGT2B7. Briefly: Inhibition screening of morphine glucuronidation in rUGT2B7-overexpressing HEK293 cell microsomes. Particulars: rUGT-overexpressing microsomes and HLM.
The target in data set [7] is T2, UGT2B7. Briefly: IC50 determination, morphine glucuronidation in rUGT2B7-overexpressing HEK293 cell microsomes.
The conditions of data set [8]: cited from earlier work.
The target of data set [9] is T2, UGT2B7. Briefly: in vitro.
The conditions of data set [10]: cited from earlier work. This is another data set of the same source.
Data set [11] deals with UGT2B7. The arrangement: method as in PMID 9715839. Particulars: coadministration of zidovudine (AZT) and methadone; cited from earlier work.
Where [12] appears, read: read-out: Calculated Ki, Morphine-3-Glucuronide, Ki=IC50/2 assuming competitive inhibition.
Setting [13] is: read-out: Calculated Ki, Morphine-6-Glucuronide, Ki=IC50/2 assuming competitive inhibition.
Where [14] appears, read: read-out: Calculated Ki,u, Morphine-3-Glucuronide, Ki corrected with fu,inc.
Where [15] appears, read: read-out: Calculated Ki,u, Morphine-6-Glucuronide, Ki corrected with fu,inc.
The mark [16] stands for this setting: read-out: IC50,u, Morphine-3-Glucuronide formation, corrected for non-specific binding with fu,inc (11-OH-THC fu,inc as surrogate for 11-COOH-THC and 7-OH-CBD).
The mark [17] stands for this setting: read-out: IC50,u, Morphine-6-Glucuronide formation, corrected for non-specific binding with fu,inc (11-OH-THC fu,inc as surrogate for 11-COOH-THC and 7-OH-CBD).

Residue numbers refer to the chain shown, from its start. Several values for one entry are separate records, joined by “and”; a condition that tells them apart may be missing. Equal values may be shown once. Read-outs that look alike come from different tables or passages of the source.

Turning to “11-hydroxy-Δ^9-tetrahydrocannabinol [11-OH-THC]”, the Ki on UGT2B7 [1] (setting [12]) is 8.82 ± 8.42 µM; on UGT2B7 [1] (setting [13]), 6.61 ± 5.02 µM; on UGT2B7 [1] (setting [14]), 0.82 ± 0.79 µM; at UGT2B7 [1] (setting [15]), 0.62 ± 0.47 µM. For the same molecule, the IC50 is 1.7 ± 1.6 µM on UGT2B7 [1] (setting [16]); 1.2 ± 0.95 µM at UGT2B7 [1] (setting [17]); 18 µM and 13 µM on UGT2B7 [2]; 12 ± 3.5 µM against UGT2B7 [4]; 0.96 ± 0.27 µM at UGT2B7 [7] (setting [16]); 0.96 ± 0.28 µM at UGT2B7 [7] (setting [17]). For the same molecule, the Cmax in data set [3] (THC dose 20 mg, Oral) is 20 nM; in [3] (THC dose 25 mg, Inhalation), 10 nM; in [3] (THC dose 70 mg, Inhalation), 30 nM; in [3] (THC dose 100 mg, Inhalation), 50 nM; in data set [3] (THC dose 130 mg, Oral), 100 nM; in [3] (THC dose 160 mg, Oral) it was 120 nM. Also, at UGT2B7 [5], the “inhibition of M3G and M6G formation in HLM (in words)” value (“inhibition of M3G and M6G formation” for short) is “significant inhibition”. Also, on UGT2B7 [6], the “inhibition of UGT2B7-mediated morphine metabolism (overall, in words)” value (shortened to “inhibition … (overall, in words)”) is “strong inhibition”. Moreover, the results for the “unbound fraction (fu,inc)” value in data set [8] (HLM) and in data set [8] (rUGT-overexpressing microsomes) were 0.094 and 0.078, respectively.
In the case of `C=C(C)[C@@H]1CCC(C(=O)O)=C[C@H]1c1c(O)cc(CCCCC)cc1O` [7-COOH-CBD, 7-carboxy-cannabidiol], the “inhibition of M3G and M6G formation” value on UGT2B7 [5] is given as “weak to moderate inhibition”.
`C=C(C)[C@@H]1CCC(CO)=C[C@H]1c1c(O)cc(CCCCC)cc1O` [7-OH-CBD, 7-hydroxy-cannabidiol]: the Ki is 8.59 ± 3.05 µM on UGT2B7 [1] (setting [12]), 3.99 ± 2.54 µM on UGT2B7 [1] (setting [13]), 0.81 ± 0.29 µM on UGT2B7 [1] (setting [14]) and 0.38 ± 0.12 µM at UGT2B7 [1] (setting [15]). Moreover, the IC50 on UGT2B7 [1] (setting [16]) was 1.6 ± 0.57 µM; on UGT2B7 [1] (setting [17]), 0.75 ± 0.24 µM; on UGT2B7 [4], 38 µM and 39 µM; on UGT2B7 [7] (setting [16]), 3 ± 2.1 µM; on UGT2B7 [7] (setting [17]), 3 ± 0.7 µM. For the same molecule, the Cmax in [3] (CBD dose 70 mg, Oral) was 30 nM; in [3] (CBD dose 700 mg, Oral), 340 nM; in data set [3] (CBD dose 2000 mg, Oral), 980 nM. Moreover, the “inhibition of M3G and M6G formation” value at UGT2B7 [5] is reported as “significant inhibition”. For the same molecule, the “inhibition … (overall, in words)” value on UGT2B7 [6] was “strong inhibition”.
As for `CCCCCc1cc(O)c2c(c1)OC(C)(C)[C@@H]1CCC(C(=O)O)=C[C@@H]21` [11-COOH-THC, 11-nor-9-carboxy-Δ^9-tetrahydrocannabinol], the Ki on UGT2B7 [1] (setting [12]) is 91.6 ± 18.5 µM; at UGT2B7 [1] (setting [13]) it was 52.1 ± 8.16 µM; at UGT2B7 [1] (setting [14]), 8.61 ± 1.74 µM; on UGT2B7 [1] (setting [15]), 4.89 ± 0.77 µM. The IC50 on UGT2B7 [1] (setting [16]) was 17 ± 3.5 µM; at UGT2B7 [1] (setting [17]), 9.8 ± 1.5 µM; on UGT2B7 [2], 184 µM and 104 µM; at UGT2B7 [4], 47 µM and 55 µM; on UGT2B7 [7] (setting [16]), 3.7 ± 1.2 µM; on UGT2B7 [7] (setting [17]), 4.3 ± 1.2 µM. The Cmax in data set [3] (THC dose 20 mg, Oral) was 190 nM; in [3] (THC dose 25 mg, Inhalation) it was 70 nM; in data set [3] (THC dose 70 mg, Inhalation), 180 nM; in data set [3] (THC dose 100 mg, Inhalation) it was 260 nM; in data set [3] (THC dose 130 mg, Oral), 1220 nM; in data set [3] (THC dose 160 mg, Oral), 1500 nM. The “inhibition of M3G and M6G formation” value at UGT2B7 [5] is reported as “weak to moderate inhibition”. Moreover, the “inhibition … (overall, in words)” value against UGT2B7 [6] is listed as “more moderate inhibition”.
Turning to `CCCCCc1cc(O)c2c(c1)OC(C)(C)c1ccc(C)cc1-2` [CBN, cannabinol], the inhibition at 100 µM on UGT2B7 [9] (microsomes of HEK293 cells overexpressing recombinant UGT2B7, probe morphine […] (morphine-3-glucuronide formation)) was determined as 10%; on UGT2B7 [9] (microsomes of HEK293 cells overexpressing recombinant UGT2B7, probe morphine […] (morphine-6-glucuronide formation)), 33%. Also, the “inhibition of M3G and M6G formation” value on UGT2B7 [5] was “did not exhibit appreciable inhibition”. Moreover, the “inhibition … (overall, in words)” value on UGT2B7 [6] is “no significant inhibitory activity”.
For `CCCCCc1cc(O)c2c(c1)OC(C)(C)[C@@H]1CCC(C)=C[C@@H]21` [THC, Δ^9-tetrahydrocannabinol, reference compound], the Ki at UGT2B7 [1] (setting [12]) is 12.2 ± 2.77 µM; on UGT2B7 [1] (setting [13]), 7.69 ± 1.63 µM; at UGT2B7 [1] (setting [15]) it was 0.37 ± 0.08 µM. In addition, the IC50 was 1.2 ± 0.27 µM on UGT2B7 [1] (setting [16]); 0.74 ± 0.16 µM at UGT2B7 [1] (setting [17]); 24 µM and 15 µM on UGT2B7 [2]; 0.85 ± 0.34 µM on UGT2B7 [7] (setting [16]); 0.34 ± 0.07 µM at UGT2B7 [7] (setting [17]). The Cmax in [3] (THC dose 20 mg, Oral) was 30 nM; in data set [3] (THC dose 25 mg, Inhalation) it was 250 nM; in [3] (THC dose 70 mg, Inhalation) it was 690 nM; in data set [3] (THC dose 100 mg, Inhalation) it was 990 nM; in [3] (THC dose 130 mg, Oral), 200 nM; in data set [3] (THC dose 160 mg, Oral) it was 240 nM. Also, on UGT2B7 [5], the “inhibition of M3G and M6G formation” value was “significant inhibition”. Moreover, the “Cmax,u” value in [10] (after consumption) was 20 nM. The “ka (first-order absorption rate constant)” value in data set [10] (value set for the static model, ref Cox et al., 2019 [45]) was 0.02. In addition, in data set [10] (value set for the static model, ref Schwilke et al., 2009 [55]), the “BP (blood to plasma ratio)” value is 0.4. Also, the “inhibition … (overall, in words)” value on UGT2B7 [6] was “strong inhibition”. Also, the “unbound fraction (fu,inc)” value in [8] (HLM) is on record as 0.048.
Consider `Cc1cn([C@H]2C[C@H](N=[N+]=[N-])[C@@H](CO)O2)c(=O)[nH]c1=O` [zidovudine], for which, in the data set on UGT2B7 [11], the “increase in zidovudine exposure” value is listed as 1.4 fold.
